This assay concerns the target NT647-MEK1 (MEK1 residues 37–383) (Homo sapiens, UniProt Q02750). Put plainly: Automated microscale thermophoresis. The assay is classed as binding. Background: Microscale thermophoresis detects binding through changes in fluorescence in a small temperature gradient.

Sequence of NT647-MEK1 (MEK1 residues 37–383) (Q02750 37-383): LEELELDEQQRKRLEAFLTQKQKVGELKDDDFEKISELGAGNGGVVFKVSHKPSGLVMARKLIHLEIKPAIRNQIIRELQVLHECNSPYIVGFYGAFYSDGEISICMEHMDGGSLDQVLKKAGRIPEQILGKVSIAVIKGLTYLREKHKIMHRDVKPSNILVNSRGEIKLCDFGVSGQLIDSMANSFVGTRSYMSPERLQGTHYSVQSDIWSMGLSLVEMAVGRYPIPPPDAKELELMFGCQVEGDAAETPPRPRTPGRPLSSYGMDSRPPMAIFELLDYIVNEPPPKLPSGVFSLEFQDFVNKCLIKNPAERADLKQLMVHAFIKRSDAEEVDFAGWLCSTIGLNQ

One may read the Kd as the concentration at which binding is half-saturated. For the compound `Nc1ncnc2c1ncn2[C@@H]1O[C@H](COP(=O)(O)OP(=O)(O)OP(=O)(O)O)[C@@H](O)[C@H]1O` [ATP, adenosine triphosphate], binding (Kd of ATP in the absence of MgCl2, without MgCl2) was characterised by a dissociation constant (Kd) of 140 µM and the equilibrium dissociation constant (Kd) (Kd of ATP in the presence of MgCl2, MST buffer with 10 mM MgCl2) was determined as 4.5 µM.

Source of the values: publication PMC4800460 (Journal of Biomolecular Screening, 2015).
